Test results from patent publication US10040806B2, “Microbiocidally active benzoxaboroles” (Syngenta Participations AG, priority 2014, dated 2018).

Assays:
[1] = test system: Mycosphaerella arachidis (Cercospora arachidicola); test: Mycosphaerella arachidis (Cercospora arachidicola)/liquid culture (early leaf spot); format: cell-based; settings: liquid culture, PDB, inhibition of growth determined photometrically 4-5 days after application, read-out: disease control
Pythium ultimum = test: Pythium ultimum/liquid culture (seedling damping off); format: cell-based; settings: Globisporangium ultimum, liquid culture, potato dextrose broth, inhibition of growth determined photometrically 2-3 days after application, read-out: disease control
[2] = test system: Mycosphaerella graminicola (Septoria tritici); test: Mycosphaerella graminicola (Septoria tritici)/liquid culture (Septoria blotch); format: cell-based; settings: Zymoseptoria tritici, liquid culture, PDB, inhibition of growth determined photometrically 4-5 days after application, read-out: disease control
[3] = test system: Monographella nivalis (Microdochium nivale); test: Monographella nivalis (Microdochium nivale)/liquid culture (foot rot cereals); format: cell-based; settings: liquid culture, PDB, inhibition of growth determined photometrically 4-5 days after application, read-out: disease control

Row | SMILES | melting point [°C] | inhibition of growth at 20 ppm [1] [%] | inhibition of growth at 20 ppm (Pythium ultimum) [%] | inhibition of growth at 20 ppm [2] [%] | inhibition of growth at 20 ppm [3] [%]
1 | OB1OCc2cc(Cl)c(O)c(Cl)c21 [Compound 94, 5,7-dichloro-1-hydroxy-3H-2,1-benzoxaborol-6-ol] | 174 to 176 | ≥ 80 | ≥ 80 | ≥ 80 | ≥ 80
2 | OB1OCc2cc3c(cc21)OC(F)(F)O3 [Compound 1] | 147 to 149 | ≥ 80 | ≥ 80 | ≥ 80 | ≥ 80
3 | COc1cc2c(cc1Cl)COB2O [Compound 5, 5-chloro-1-hydroxy-6-methoxy-3H-2,1-benzoxaborole] | – | ≥ 80 | ≥ 80 | ≥ 80 | ≥ 80
4 | COc1cc(Cl)cc2c1B(O)OC2 [Compound 104, 5-chloro-1-hydroxy-7-methoxy-3H-2,1-benzoxaborole] | 146 to 148 | ≥ 80 | ≥ 80 | ≥ 80 | ≥ 80

Now from value to compound, other results behind:

Row | melting point [°C] | SMILES | inhibition of growth at 20 ppm [1] [%] | inhibition of growth at 20 ppm (Pythium ultimum) [%] | inhibition of growth at 20 ppm [2] [%] | inhibition of growth at 20 ppm [3] [%]
5 | 194 to 195 | OB1OCc2cc(Cl)c(O)cc21 [Compound 6, 5-chloro-1-hydroxy-3H-2,1-benzoxaborol-6-ol] | ≥ 80 | ≥ 80 | ≥ 80 | ≥ 80
6 | 146 to 148 | CCOc1cc2c(cc1Cl)COB2O [Compound 9, 5-chloro-6-ethoxy-1-hydroxy-3H-2,1-benzoxaborole] | ≥ 80 | ≥ 80 | ≥ 80 | ≥ 80
7 | 109 to 111 | CCOc1c(Cl)cc2c(c1Cl)B(O)OC2 [Compound 95, 5,7-dichloro-6-ethoxy-1-hydroxy-3H-2,1-benzoxaborole] | ≥ 80 | ≥ 80 | ≥ 80 | ≥ 80
8 | 97 to 100 | CCOc1cc2c(cc1C)COB2O [Compound 38, 6-ethoxy-1-hydroxy-5-methyl-3H-2,1-benzoxaborole] | ≥ 80 | ≥ 80 | ≥ 80 | ≥ 80
